In data set [1] the test system is RAF dimers in HCT-116 cells (Encorafenib-induced pERK signalling). Description: HCT-116 AlphaLISA SureFire pERK1/2 Cellular Assay (Dimer). The format is cell-based. To be noted: Homo sapiens; for pIC50: HCT-116, 1 h, read-out: PERK HCT116 dimer (1 hr) plC50. Here is the method: (§1) The human HCT-116 colorectal carcinoma cell line (ATCC CCL-247) endogenously expresses the KRAS^G13D mutation, which leads to constitutive activation of the MAP kinase pathway and phosphorylation of ERK. […] Assay read outs took place 2 or 24 hours after dosing with compounds. On the first day, HCT-116 cells were harvested, resuspended in growth medium (McCoys5A with Glutamax (Life Technologies 36600021) and 10% heat-inactivated fetal bovine serum (Sigma F9665)), and counted. Cells were plated in 100 μl per well in each well of a 96-well culture dish (Sigma CLS3598) to a final density of 30,000 (2 hr read) or 15,000 (24 hr read) cells per well and incubated over night at 37° C. and 5% CO2. On day 2, the growth medium was exchanged for dosing medium (McCoys5A with Glutamax (Life Technologies 36600021) and 1% heat-inactivated fetal bovine serum (Sigma F9665)) and the cells were dosed with compounds to produce a 10-point dose response, where the top concentration was 1 μM and subsequent concentrations were at ⅓ log dilution intervals. A matched DMSO control was included. The cells were subsequently incubated for either 2 or 24 hours at 37° C. and 5% CO2. After incubation, media was removed and the cells were incubated with lysis buffer containing phosphatase inhibitors for 15 minutes at room temperature. Cell lysates were transferred to a ½ area 96 well white Optiplate™ (Perkin Elmer 6005569) and incubated with anti-mouse IgG acceptor beads, a biotinylated anti-ERK1/2 rabbit antibody recognizing both phosphorylated and non-phosphorylated ERK1/2, a mouse antibody targeted to the Thr202/Tyr204 epitope and recognizing phosphorylated ERK proteins only, and streptavidin-coated donor beads. The biotinylated antibody binds to the streptavidin-coated donor beads and the phopsho-ERK1/2 antibody binds to the acceptor beads. Plates were read on an EnVision reader (Perkin Elmer) and excitation of the beads at 680 nm with a laser induced the release of singlet oxygen molecules from the donor beads that trigger energy transfer to the acceptor beads in close proximity, producing a signal that can be measured at […]. Both antibodies bound to phosphorylated ERK proteins, bringing the donor and acceptor beads into close proximity. All data were analyzed using the Dotmatics or GraphPad Prism software packages. Inhibition of ERK phosphorylation was assessed by determination of the absolute IC50 value, which is defined as the concentration of compound required to decrease the level of phosphorylated ERK proteins by 50% when compared to DMSO control.
HCT-116 AlphaLISA SureFire pERK1/2 Cellular Assay (Dimer) […]
On the technique in general: In Alpha technology, singlet oxygen from a donor bead excites a nearby acceptor bead.

A short description of data set [2]: Hepatocyte Stability Assay (MLH). To be noted: mouse hepatocytes, 0.5×10^6 cells/mL, 1 μM compound, 37° C. The format is in vitro ADME. Here is the method:
Hepatocyte Stability Assay
Hepatocyte stability studies were performed manually using the substrate depletion approach. Compounds were incubated at 37° C. with cryo-preserved mouse (Bioreclamation) or human (Corning) hepatocytes at a cell density of 0.5×10^6 cells/mL and a final compound concentration of 1 μM. Sampling was performed at defined timepoints and the reaction was terminated by adding to ice-cold organic solvent. Compound concentrations were determined by LC-MS/MS analysis. The natural log of the percentage of compound remaining was plotted against each time point and the slope determined. The half-life (t1/2) and CLint were calculated using Equations 1 and 3, respectively. Data analysis was performed using Excel (Microsoft, USA).
HLH (human liver hepatocytes) and MLH (mouse liver heptaocytes) stability assay results are described in Table 34C.

The subject of data set [3] is BRAF monomers in A375 cells (BRAF V600E, pERK). The experiment in a line: A375 AlphaLISA SureFire pERK1/2 Cellular Assay (Monomer). The format is cell-based. To be noted: Homo sapiens; for pIC50: A-375, 1 h, read-out: PERK A375 mono (1 hr) plC50. The method, then: [Worded in the source for another cell line; used here, by the source, with some conditions changed.] as §1
A375 AlphaLISA SureFire pERK1/2 Cellular Assay (Monomer) […]

Data set [4] is described as follows: Microsomal Stability Assay (MLM). The format is in vitro ADME. The note with it: mouse liver microsomes, 0.5 mg/mL protein, 1 μM compound, 37° C. The method, then:
Microsomal Stability Assay
The stability studies were performed manually using the substrate depletion approach. Test compounds were incubated at 37° C. with cryo-preserved mouse or human liver microsomes (Corning) at a protein concentration of 0.5 mg·mL^−1 and a final substrate concentration of 1 μM. Aliquots were removed from the incubation at defined timepoints and the reaction was terminated by adding to ice-cold organic solvent. Compound concentrations were determined by LC-MS/MS analysis. The natural log of the percentage of compound remaining was plotted against each time point and the slope determined. The half-life (t1/2) and CLint were calculated using Equations 1 and 2, respectively. Data analysis was performed using Excel (Microsoft, USA).
HLM (human liver microsomes) and MLM (mouse liver microsomes) stability assay results are described in Table 34C.
A general note: Liver microsomes are a subcellular fraction often used to study metabolism.

pIC50: −log10 of the molar value. Like-named read-outs stand apart in the source and are kept apart here.

What is called hepatocyte CLint is the rate of metabolic loss divided by the concentration. Broadly, the microsomal CLint is the rate of metabolic loss divided by the concentration. For `O=C1CCc2c(Oc3ccc4c(c3)C[C@H](c3nc(-c5ccc(F)cc5)c[nH]3)CO4)ccnc2N1` (single isomer, unassigned) [Compound A-2], the pIC50 in data set [1] was 7.45; in data set [3] it was 6.56. For the same compound, the hepatocyte CLint at 1 µM in data set [2] was determined as 12.5 µL/min/1e6 cells. Further, the microsomal CLint at 1 µM in data set [4] came out at 80.1 µL/min/mg.
On to `O=C1CCc2c(Oc3ccc4c(c3)CC(c3nc(-c5cccs5)c[nH]3)CO4)ccnc2N1` (racemic) [B-rac], for which the IC50 in data set [1] (HCT-116, HCT116 cells, RAF dimer, 1 hr, read-out: PERK HCT116 dimer (1 hr) plC50 (converted)) is 28.2 nM; in data set [3] (A-375, A375 cells, BRAF monomer, 1 hr incubation, read-out: PERK A375 mono (1 hr) plC50 (converted)), 49 nM. The microsomal CLint at 1 µM in data set [4] worked out at 58.8 µL/min/mg.
`O=C1CCc2c(Oc3ccc4c(c3)CC(c3ncc(-c5ccc(F)cc5)[nH]3)CO4)ccnc2N1` (racemic) [A-rac]: the pIC50 in data set [1] is 7.31; in data set [3] it was 7.26. Besides, the hepatocyte CLint at 1 µM in data set [2] stood at 23.4 µL/min/1e6 cells. Besides, the microsomal CLint at 1 µM in data set [4] was found to be 30.6 µL/min/mg.
In the same order, the values of `O=C1CCc2c(Oc3ccc4c(c3)C[C@@H](c3nc(-c5ccc(F)cc5)c[nH]3)CO4)ccnc2N1` (single isomer, unassigned) [Compound A-1] are 7.39, 7.51, 11 µL/min/1e6 cells and 16 µL/min/mg.
